In US11015179B2, “Peptide having anti-viral effect and composition containing same” (priority 2015, dated 2021):

Experiments:
[1] = system: immune cells; test: Distribution of immune cells (FACS) in whole HBV W4P genome-transgenic mice; type: in vivo; conditions: 3TC
Experimental: PEP1 is an HLA Class II-binding peptide derived from telomerase, and a 16-amino acid peptide triggering cytotoxic T-cell and helper T-cell immune responses. Therefore, to observe a change in the distribution of renal immune cells by the PEP1 peptide, transgenic mice were prepared by injecting the whole HBV W4P variant genome, on week 4, the whole blood was collected from the mice, and immune cells were isolated from the kidneys of the mice and then stained with lymphocyte markers (B cells (CD19B), CD4, CD8, NK1.1 cells) and myeloid cell markers (DC (CD11c), a macrophage marker (F4/80), a neutrophil marker (Ly-6G), a monocyte marker (Gr1)) according to an extracellular cell surface staining method for FACS analysis.

[2] = system: HBV; test: Virion production (real-time PCR of HBV DNA) in W4P-transfected Huh7 cell line; type: cell-based, hepatitis B virus; conditions: Huh7, 10 μM, 48 hours
Experimental: (§1) To observe the potential for virion proliferation of whole HBV containing W4P, virion DNA was extracted from the entire supernatant while the medium was changed every 24 hours by the above-described method, and subjected to real-time quantitative PCR using a Quantitech SYBR Green Master-Mix kit (Qiagen). The entire supernatant was centrifuged using an ultracentrifuge equipped with an SW28 swing rotor at 20,000 rpm for 2 hours to precipitate the virus, and the precipitated viral pellets were suspended with 200 μl of sterilized DW. […] Real-time PCR was performed at 40 cycles of 5 min at 95° C., 15 sec at 94° C., and 15 sec at 60° C. using the Exicycler™ 96 Real-Time Quantitative Thermal Block System (Bioneer Co., Korea), and the temperature was increased from 53° C. to 90° C. by modulating to 0 sec at 95° C., 30 sec at 53° C. and modulating by 0.1° C. per second to analyze a melting curve.
To observe the virion production in the supernatant after the inhibition of HBsAg secretion by the PEP1 peptide was observed, virions were collected from the supernatant obtained by the above-described method using PEG 6000, and HBV DNA was obtained using a virus DNA prep kit (Intron, Korea), and then quantified by real-time PCR.

[3] = system: macrophages; test: Differentiation of macrophages (FACS) in whole HBV W4P genome-transgenic mice; type: in vivo; conditions: eight weeks; PEP1 50 μg/kg, 3TC 500 μg/kg; vs PBS
Experimental: Therefore, to observe if the PEP1 peptide is able to differentiate macrophages to M1, eight weeks after PBS, 50 μg/kg of the PEP1 peptide and 500 μg/kg of 3TC were injected into the caudal vein of each of transgenic mice prepared by injecting the whole HBV W4P variant genome twice a week, the whole blood was collected from the mouse and a kidney of the mouse was extracted, immune cells were isolated and stained with a macrophage marker (F4/80) and M1 marker MHCII through an extracellular cell surface staining method. Afterward, FACS analysis was carried out.

[4] = system: INFγ; test: INFγ activity of immune cells (FACS) in whole HBV W4P genome-transgenic mice; type: in vivo; conditions: 8 weeks; PEP1 50 μg/kg, 3TC 500 μg/kg; HBsAg stimulation 72 hours
Experimental: INF, which is a hormone-like cytokine, is secreted from immune cells against a virus. INFs are present in three types such as α, β and γ, and among these, INFγ is known to be critical for inhibiting the hepatitis B virus (HBV) in humans. Therefore, to observe the activity of INFγ, as an immune response, by the PEP1 peptide, 8 weeks after 50 μg/kg of the PEP1 peptide and 500 μg/kg of 3TC were injected into the caudal vein of each of transgenic mice prepared by injection of the whole HBV W4P variant genome twice a week, the whole blood was collected and a kidney was extracted from the mouse, and then immune cells were isolated and treated with HBsAg for stimulation. Seventy two hours after the stimulation, the INFγ cytokine was accumulated in cells by Brefeldin A and stained by an intracellular staining method for FACS analysis.

[5] = system: HBV; test: HBsAg ELISA in whole HBV W4P genome-transfected HepG2 cell line; type: cell-based, hepatitis B virus; conditions: 48 hours
[6] = system: HBV; type: in vivo, mice; conditions: caudal vein twice a week; PEP1 50 μg/kg, 3TC 500 μg/kg
Experimental: HBV transgenic mice were prepared by injecting a 1.1-fold HBV base sequence comprising a full open reading frame (ORF) into the fertilized eggs of the mice through microinjection. The base sequence of HBV used in the research was obtained using a pHY92-W4P plasmid. The pHY92-W4P plasmid was digested with EcoRi before injection into the fertilized eggs of the mice, and finally a base sequence of 3.9 kb in length was used for microinjection. Produced subjects were selected through PCR using a specific sequence of HBsAg. PCR-positive subjects were selected according to the concentrations of serum HBsAg and HBeAg, and finally used as PCR-positive, HBsAg-positive, and HBeAg-positive mice in the study. These mice were backcrossed with C57BL/6 mice to produce heterologous HBV transgenic mice.
HBsAg levels in the HBV-transgenic mice were determined using an HBsAg ELISA kit (BIOKIT, Germany). To quantify HBV titers, total DNA was extracted and confirmed by real-time PCR.
In addition, HBV virion DNA was obtained from mouse serum and subjected to real-time PCR.

[7] = system: HSP 90, SOD, ERK, JAK2; test: Liver protein expression (western blotting) in whole HBV W4P genome-transgenic mice; type: in vivo; conditions: week 8; PEP1 50 μg/kg, 3TC 500 μg/kg
Experimental: To observe a change in protein expression affecting the antiviral effect by the PEP1 peptide, transgenic mice prepared by injecting the whole HBV W4P variant genome were used. The PEP1 peptide was injected into the caudal vein of the mouse at a concentration of 50 μg/kg twice a week. As a control group, 500 μg/kg of 3TC was injected like the PEP1 peptide. On week 8, the whole blood was collected from the mouse, and proteins were extracted from the liver of the mouse and subjected to western blotting to observe expression of the proteins.

[8] = system: IL-6; test: IL-6 ELISA in culture supernatant of W4P-transfected Huh7 cell line; type: cell-based, human; conditions: Huh7, 10 μM, 48 hours
Experimental: It has been reported that HBV preS1 W4P variants are closely related to production of IL-6, which is an inflammation regulatory cytokine. Therefore, to observe an anti-inflammatory effect of PEP1 in IL-6-induced cell lines, 48 hours after the whole HBV W4P genome was injected into HepG2 and Huh7 cell lines which were then treated with 10 μM PEP1 and 10 μM 3TC, respectively, IL-6 levels in the culture supernatants were observed through ELISA.

[9] = system: HBV; test: Virion production (real-time PCR of HBV DNA) in W4P-transfected HepG2 cell line; type: cell-based, hepatitis B virus
Experimental: as §1
To observe the virion production in the supernatant after the inhibition of HBsAg secretion by the PEP1 peptide was observed, virions were collected from the supernatant obtained by the above-described method using PEG 6000, and HBV DNA was obtained using a virus DNA prep kit (Intron, Korea), and then quantified by real-time PCR. […]

[10] = system: HBV; test: Antiviral effect with HSP90 blockage in whole HBV wild-type genome-transfected HepG2 cell line (real-time quantitative PCR); type: cell-based, hepatitis B virus; conditions: HepG2, ETV 30 nM, 24 hours
Experimental: PEP1 has been known to pass through a cell membrane from the outside to the inside of the cells in a shuttle method via HSP90. To confirm if the antiviral effect is reduced in cells by blocking the HSP90 activity based on such a mechanism, in this research, a HepG2 cell line was transiently transfected with the whole HBV wild-type genome, treated with anti-GAPDH, anti-HSP (1 ug/ml, blockage of HSP90 activity) and 17-AAG (1 μM) for 1 hour, ant then with PBS (0.5%), entecavir (ETV, 30 nM) and PEP1 (5 μM) for 24 hours. Subsequently, the supernatant was collected and treated with PEG6000 to precipitate the virus, and viral DNA was extracted and subjected to real-time quantitative PCR to observe an antiviral effect. All experiments are independently performed in triplicate, and a statistical significance test was performed using one-way ANOVA through the Tukey's Multiple Comparison Test. ** p<0.05 versus PBS, and ## p<0.05 versus None.

Compound	Distribution of immune cells [1]	Virions produced in the supernatant [2]	Distribution of macrophages among myeloid-derived cells [3]	Number of cells differentiated to M1 [3]	INFγ activity of CD4, CD8 and NK1.1 cells [4]	HBsAg inhibitory effect vs control group ([5]; 3TC 10 μM, cell line not specified (Huh7, Huh7.5, HepG2 tested))	HBsAg in both pellets and supernatants ([5]; HepG2, 3TC 0.01-100 μM)	Level of HBsAg in serum, reduction effect on week 8 [6]	Level of HBsAg in serum, up to 4 weeks [6]	Serum virion level, inhibitory effect on week 8 [6]	Serum virion level, week 4 [6]	JAK2 phosphorylation in liver [7]	Protein phosphorylation of ERK in liver [7]	IL-6 level in culture supernatant [8]	Virions produced in the supernatant ([9]; HepG2, 10 μM, 48 hours)	Virion synthesis according to concentration ([9]; HepG2, 3TC)	Antiviral effect in untreated cells or cells treated with GAPDH, HSP90 or 17-AAG [10]
Nc1ccn([C@@H]2CS[C@H](CO)O2)c(=O)n1 [3TC, ramivudine]	did not have an influence on the distribution of immune cells	inhibitory effect	did not show a difference	did not show a difference	slightly increased activity	exhibited higher inhibitory effects than the control group	showed inhibitory effects according to concentration	no such effect	neither the PEP1 peptide nor 3TC showed a reduction effect	approximately 52%	did not show virion inhibitory effects	inhibited phosphorylation	inhibited phosphorylation	no effect on production of IL-6 cytokine	inhibitory effect	has an inhibitory effect on virion synthesis according to concentration	
C=C1[C@H](CO)[C@@H](O)C[C@@H]1n1cnc2c(=O)[nH]c(N)nc21 [ETV, entecavir]																	no difference in the antiviral effect
